In ChEMBL document CHEMBL1909046, “DrugMatrix in vitro pharmacology data”:
pIC50, pKi: −log10 of the molar value.

Tests used:
[1] = target: 5-hydroxytryptamine receptor 4 (Cavia porcellus, UniProt O70528); type: cell membranes, Dunkin-Hartley, Striatum, Membrane; also: in other assays of this panel Not Active means under 50% inhibition at 10 µM
[2] = target: Sodium-dependent noradrenaline transporter (Homo sapiens, UniProt P23975); assay: DRUGMATRIX: Norepinephrine Transporter radioligand binding (ligand: [125I] RTI-55); type: cell membranes, MDCK, Membrane; conditions: Not Active = under 50% inhibition at 10 µM; for IC50: mdck; for pIC50: read-out: IC50; for pKi: read-out: Ki
Sequence of Sodium-dependent noradrenaline transporter (P23975 whole entry): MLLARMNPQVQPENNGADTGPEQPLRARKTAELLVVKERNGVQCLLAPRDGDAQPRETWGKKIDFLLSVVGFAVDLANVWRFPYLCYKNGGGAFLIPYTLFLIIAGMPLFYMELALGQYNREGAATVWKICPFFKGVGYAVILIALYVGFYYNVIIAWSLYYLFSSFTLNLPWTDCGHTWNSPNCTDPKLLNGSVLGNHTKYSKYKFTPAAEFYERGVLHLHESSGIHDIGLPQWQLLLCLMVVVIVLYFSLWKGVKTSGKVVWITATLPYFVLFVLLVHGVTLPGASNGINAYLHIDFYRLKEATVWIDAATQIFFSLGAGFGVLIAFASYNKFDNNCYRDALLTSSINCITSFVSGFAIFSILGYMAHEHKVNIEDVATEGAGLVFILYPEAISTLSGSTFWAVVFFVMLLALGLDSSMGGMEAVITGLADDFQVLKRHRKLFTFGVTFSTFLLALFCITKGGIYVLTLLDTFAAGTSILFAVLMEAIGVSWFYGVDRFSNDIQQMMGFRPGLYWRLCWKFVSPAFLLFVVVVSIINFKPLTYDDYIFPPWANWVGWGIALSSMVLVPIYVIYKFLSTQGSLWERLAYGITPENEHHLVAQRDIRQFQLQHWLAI

[3] = target: T1, Muscarinic acetylcholine receptor M2 (Homo sapiens, UniProt P08172); type: cell membranes, CHO-K1, Membrane; conditions: for IC50: cho-k1; as to all read-outs here: in other assays of this panel Not Active means under 50% inhibition at 10 µM
T1 sequence (P08172 whole entry): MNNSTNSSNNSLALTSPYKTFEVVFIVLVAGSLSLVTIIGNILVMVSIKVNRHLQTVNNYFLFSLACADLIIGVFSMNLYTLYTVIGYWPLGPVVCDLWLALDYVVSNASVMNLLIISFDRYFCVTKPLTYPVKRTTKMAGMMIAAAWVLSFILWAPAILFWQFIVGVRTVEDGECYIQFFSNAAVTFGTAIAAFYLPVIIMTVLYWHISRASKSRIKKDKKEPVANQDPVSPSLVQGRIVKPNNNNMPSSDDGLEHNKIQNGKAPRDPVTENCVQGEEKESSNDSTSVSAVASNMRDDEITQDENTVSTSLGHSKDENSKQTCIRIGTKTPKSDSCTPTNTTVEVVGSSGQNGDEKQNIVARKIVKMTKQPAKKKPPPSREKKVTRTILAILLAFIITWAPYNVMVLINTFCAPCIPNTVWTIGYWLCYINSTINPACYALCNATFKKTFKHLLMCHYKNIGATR

Substance-P receptor = Substance-P receptor (Homo sapiens, UniProt P25103); type: cell membranes, CHO, Membrane; conditions: for IC50: cho; as to all read-outs here: in other assays of this panel Not Active means under 50% inhibition at 10 µM
Sequence of Substance-P receptor (P25103 whole entry): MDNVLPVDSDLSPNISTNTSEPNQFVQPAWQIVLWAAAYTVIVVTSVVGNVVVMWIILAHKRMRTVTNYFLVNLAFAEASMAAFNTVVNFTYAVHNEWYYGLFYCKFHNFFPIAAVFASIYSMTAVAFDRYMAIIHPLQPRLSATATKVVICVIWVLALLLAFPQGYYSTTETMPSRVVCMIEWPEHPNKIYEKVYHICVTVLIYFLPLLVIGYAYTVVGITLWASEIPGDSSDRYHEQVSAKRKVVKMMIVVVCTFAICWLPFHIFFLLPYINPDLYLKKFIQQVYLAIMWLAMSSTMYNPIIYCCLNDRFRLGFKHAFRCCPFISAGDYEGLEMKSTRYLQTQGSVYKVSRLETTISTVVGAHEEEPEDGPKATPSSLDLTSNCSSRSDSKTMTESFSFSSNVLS

[4] = target: Protein kinase C alpha type (Homo sapiens, UniProt P17252); type: cell-based; conditions: sf9;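 also: inhibition of PKCalpha kinase activity measured in an enzyme assay with histone as the phosphorylation substrate; in other assays of this panel Not Active means under 50% inhibition at 10 µM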
[5] = target: Beta-3 adrenergic receptor (Homo sapiens, UniProt P13945); assay: DRUGMATRIX: Adrenergic beta3 radioligand binding (ligand: [125I] Cyanopindolol); type: cell membranes, HEK293, Membrane; conditions: Not Active = under 50% inhibition at 10 µM; for IC50: hek293; for pIC50: read-out: IC50; for pKi: read-out: Ki
Sequence of Beta-3 adrenergic receptor (P13945 whole entry): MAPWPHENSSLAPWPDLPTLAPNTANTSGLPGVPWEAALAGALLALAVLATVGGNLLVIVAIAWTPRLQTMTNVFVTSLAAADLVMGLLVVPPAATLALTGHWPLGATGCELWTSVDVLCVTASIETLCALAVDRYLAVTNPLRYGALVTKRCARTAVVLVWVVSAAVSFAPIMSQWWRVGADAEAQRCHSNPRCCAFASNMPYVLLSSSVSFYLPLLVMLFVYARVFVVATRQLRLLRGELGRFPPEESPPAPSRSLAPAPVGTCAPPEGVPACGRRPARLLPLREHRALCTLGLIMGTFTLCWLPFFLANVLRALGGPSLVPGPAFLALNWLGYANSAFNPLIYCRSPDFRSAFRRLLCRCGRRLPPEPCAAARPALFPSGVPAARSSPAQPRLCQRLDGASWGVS

Sequence of 5-hydroxytryptamine receptor 4 (O70528 whole entry): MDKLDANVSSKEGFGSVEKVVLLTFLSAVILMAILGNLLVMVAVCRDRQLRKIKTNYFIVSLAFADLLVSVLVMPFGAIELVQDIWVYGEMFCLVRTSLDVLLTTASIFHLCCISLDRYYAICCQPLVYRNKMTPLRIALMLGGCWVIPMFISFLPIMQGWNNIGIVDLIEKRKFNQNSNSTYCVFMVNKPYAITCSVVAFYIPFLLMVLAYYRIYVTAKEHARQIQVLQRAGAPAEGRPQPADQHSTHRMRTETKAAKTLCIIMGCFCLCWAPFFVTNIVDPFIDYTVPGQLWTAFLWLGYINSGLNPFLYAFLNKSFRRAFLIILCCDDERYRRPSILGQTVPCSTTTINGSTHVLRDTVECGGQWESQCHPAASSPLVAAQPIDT

Row | Compound | IC50 [1] | IC50 [2] | IC50 [3] | IC50 (Substance-P receptor) | IC50 [4] | IC50 [5] | pIC50 (Substance-P receptor; read-out: IC50) | pKi (Substance-P receptor; read-out: Ki) | pIC50 [5] | pKi [5] | pIC50 [2] | pKi [2] | pIC50 ([3]; read-out: IC50) | pKi ([3]; read-out: Ki)
1 | Cc1c(C)c2c(c(C)c1O)CCC(C)(CN1CCN(c3cc(N4CCCC4)nc(N4CCCC4)n3)CC1)O2 (configuration not stated) | Not Active | Not Active | Not Active | Not Active | Not Active | Not Active | – | – | – | – | – | – | – | –
2 | COc1ccc(CCN(C)CCCC(C#N)(c2ccc(OC)c(OC)c2)C(C)C)cc1OC (configuration not stated) | Not Active | – | Not Active | Not Active | Not Active | Not Active | – | – | – | – | – | – | – | –
3 | CC(C)Cc1ccc([C@@H](C)C(=O)O)cc1 [(R)-IBUPROPHEN] | Not Active | Not Active | Not Active | Not Active | Not Active | Not Active | – | – | – | – | – | – | – | –
4 | CN(C)CCOC(c1ccccc1)c1ccccc1 [DIPHENHYDRAMINE] | Not Active | – | – | Not Active | Not Active | Not Active | – | – | – | – | – | – | – | –
5 | Clc1ccc(COC(Cn2ccnc2)c2ccc(Cl)cc2Cl)cc1 (configuration not stated) [ECONAZOLE] | Not Active | – | – | – | Not Active | – | 4.93 | 5.19 | 5.21 | 5.34 | – | – | – | –
6 | CCN(CC)CCOc1ccc(/C(=C(/Cl)c2ccccc2)c2ccccc2)cc1 [ENCLOMIPHENE] | Not Active | – | – | Not Active | Not Active | – | – | – | 5.25 | 5.37 | – | – | – | –
7 | Fc1ccc(C(c2ccc(F)cc2)N2CCN(C/C=C/c3ccccc3)CC2)cc1 [FLUNARIZINE] | Not Active | – | Not Active | Not Active | Not Active | Not Active | – | – | – | – | 5.87 | 5.88 | – | –
8 | CNCCC(Oc1ccc(C(F)(F)F)cc1)c1ccccc1 (configuration not stated) [FLUOXETINE] | Not Active | – | Not Active | Not Active | Not Active | Not Active | – | – | – | – | – | – | – | –
9 | Cc1ccc(NC(=O)c2ccc(CN3CCN(C)CC3)cc2)cc1Nc1nccc(-c2cccnc2)n1 [IMATINIB] | Not Active | Not Active | Not Active | Not Active | Not Active | Not Active | – | – | – | – | – | – | – | –
10 | CC(C)Oc1ccc2c(=O)c(-c3ccccc3)coc2c1 [IPRIFLAVONE] | Not Active | – | Not Active | Not Active | Not Active | Not Active | – | – | – | – | – | – | – | –
11 | CC(C)NCC(O)c1ccc(O)c(O)c1 (configuration not stated) [ISOPROTERENOL] | Not Active | Not Active | Not Active | Not Active | Not Active | Not Active | – | – | – | – | – | – | – | –
12 | CNC1(c2ccccc2Cl)CCCCC1=O (configuration not stated) [KETAMINE] | Not Active | Not Active | Not Active | Not Active | Not Active | Not Active | – | – | – | – | – | – | – | –
13 | N#Cc1ccc(C(c2ccc(C#N)cc2)n2cncn2)cc1 [LETROZOLE] | Not Active | Not Active | Not Active | Not Active | Not Active | Not Active | – | – | – | – | – | – | – | –
14 | CCN1CCC[C@H]1CNC(=O)c1cc(S(N)(=O)=O)ccc1OC [LEVOSULPIRIDE] | Not Active | Not Active | Not Active | Not Active | Not Active | Not Active | – | – | – | – | – | – | – | –
15 | CCN(CC)CC(=O)Nc1c(C)cccc1C [LIDOCAINE] | Not Active | Not Active | Not Active | Not Active | Not Active | Not Active | – | – | – | – | – | – | – | –
16 | O=C1Nc2ccc(Cl)cc2C(c2ccccc2Cl)=NC1O (configuration not stated) [LORAZEPAM] | Not Active | Not Active | Not Active | Not Active | Not Active | Not Active | – | – | – | – | – | – | – | –
17 | CO[C@@H]1[C@@H](OC)[C@H](C)[C@@](O)(CC(=O)O)O[C@H]1[C@H](C)[C@H]1O[C@@]2(CC[C@@](C)([C@H]3CC[C@@](C)([C@@H]4O[C@@H]([C@H]5O[C@](C)(O)[C@H](C)C[C@@H]5C)C[C@@H]4O[C@@H]4C[C@H](OC)[C@@H](OC)[C@H](C)O4)O3)O2)C[C@H](O)[C@H]1C [MADURAMICIN ACID] | Not Active | Not Active | Not Active | Not Active | Not Active | Not Active | – | – | – | – | – | – | – | –
18 | COc1c2occc2cc2ccc(=O)oc12 [METHOXSALEN] | Not Active | Not Active | Not Active | Not Active | Not Active | Not Active | – | – | – | – | – | – | – | –

Row | Compound | IC50 [1] | IC50 [2] | IC50 [3] | IC50 (Substance-P receptor) | IC50 [4] | IC50 [5] | pIC50 (Substance-P receptor; read-out: IC50) | pKi (Substance-P receptor; read-out: Ki) | pIC50 [5] | pKi [5] | pIC50 [2] | pKi [2] | pIC50 ([3]; read-out: IC50) | pKi ([3]; read-out: Ki)
19 | C[C@H]1C[C@@H]2[C@H]([C@@H](O)C[C@@]3(C)[C@H]2CC[C@]3(O)C(=O)CO)[C@@]2(C)C=CC(=O)C=C12 [METHYLPREDNISOLONE] | Not Active | Not Active | Not Active | Not Active | Not Active | Not Active | – | – | – | – | – | – | – | –
20 | Cc1cccc(C)c1OCC(C)N (configuration not stated) [MEXILETINE] | Not Active | Not Active | Not Active | Not Active | Not Active | Not Active | – | – | – | – | – | – | – | –
21 | Nc1cc(N2CCCCC2)nc(N)[n+]1[O-] [MINOXIDIL] | Not Active | Not Active | Not Active | Not Active | Not Active | Not Active | – | – | – | – | – | – | – | –
22 | CO[C@H]1/C=C/O[C@@]2(C)Oc3c(C)c(O)c4c(O)c(c(/C=N/N5CCN(C6CCCC6)CC5)c(O)c4c3C2=O)NC(=O)/C(C)=C\C=C\[C@H](C)[C@H](O)[C@@H](C)[C@@H](O)[C@@H](C)[C@H](OC(C)=O)[C@@H]1C [RIFAPENTINE] | Not Active | Not Active | Not Active | Not Active | Not Active | Not Active | – | – | – | – | – | – | – | –
23 | CCCCOc1cc(CC2CNC(=O)N2)ccc1OC (configuration not stated) [RO-201724] | Not Active | Not Active | Not Active | Not Active | Not Active | Not Active | – | – | – | – | – | – | – | –
24 | CC[C@@H](C(=O)[C@@H](C)[C@@H](O)[C@H](C)[C@@H]1O[C@@H]([C@@H](CC)C(=O)O)CC[C@@H]1C)[C@H]1O[C@]2(C=C[C@@H](O)[C@]3(CC[C@@](C)([C@H]4CC[C@](O)(CC)[C@H](C)O4)O3)O2)[C@H](C)C[C@@H]1C [SALINOMYCIN] | Not Active | Not Active | Not Active | Not Active | Not Active | Not Active | – | – | – | – | – | – | – | –
25 | O=C(Oc1ccccc1C(=O)O)c1ccccc1O [SALSALATE] | Not Active | Not Active | Not Active | Not Active | Not Active | Not Active | – | – | – | – | – | – | – | –
26 | O=C(O)c1cn(-c2ccc(F)cc2)c2cc(N3CCNCC3)c(F)cc2c1=O [SARAFLOXACIN] | Not Active | Not Active | Not Active | Not Active | Not Active | Not Active | – | – | – | – | – | – | – | –
27 | CN[C@H]1CC[C@@H](c2ccc(Cl)c(Cl)c2)c2ccccc21 [SERTRALINE] | Not Active | – | – | Not Active | Not Active | Not Active | – | – | – | – | – | – | 5.56 | 6.01
28 | CC(C)NCC(O)c1ccc(NS(C)(=O)=O)cc1 (configuration not stated) [SOTALOL] | Not Active | Not Active | Not Active | Not Active | Not Active | Not Active | – | – | – | – | – | – | – | –
29 | O.O.O.O.O.O.[Cl-].[Cl-].[Sr+2] [STRONTIUM CHLORIDE HEXAHYDRATE] | Not Active | Not Active | Not Active | Not Active | Not Active | Not Active | – | – | – | – | – | – | – | –
30 | O=C1C(CC[S+]([O-])c2ccccc2)C(=O)N(c2ccccc2)N1c1ccccc1 (configuration not stated) [SULFINPYRAZONE] | Not Active | Not Active | Not Active | Not Active | Not Active | Not Active | – | – | – | – | – | – | – | –
31 | NC(=O)N1C(=O)/C(=C(\O)c2cccs2)c2cc(Cl)ccc21 [TENIDAP] | Not Active | Not Active | Not Active | Not Active | Not Active | Not Active | – | – | – | – | – | – | – | –
32 | COc1cc2nc(N3CCN(C(=O)C4CCCO4)CC3)nc(N)c2cc1OC (configuration not stated) [TERAZOSIN] | Not Active | Not Active | Not Active | Not Active | Not Active | Not Active | – | – | – | – | – | – | – | –
33 | CN(C/C=C/C#CC(C)(C)C)Cc1cccc2ccccc12 [TERBINAFINE] | Not Active | – | Not Active | Not Active | Not Active | Not Active | – | – | – | – | 5.38 | 5.39 | – | –
34 | CCCCNc1ccc(C(=O)OCCN(C)C)cc1 [TETRACAINE] | Not Active | Not Active | Not Active | Not Active | Not Active | Not Active | – | – | – | – | – | – | – | –
35 | Cn1c(=O)c2nc[nH]c2n(C)c1=O.O [THEOPHYLLINE] | Not Active | Not Active | Not Active | Not Active | Not Active | Not Active | – | – | – | – | – | – | – | –
36 | CS(=O)(=O)c1ccc([C@@H](O)[C@@H](CO)NC(=O)C(Cl)Cl)cc1 [THIAMPHENICOL] | Not Active | Not Active | Not Active | Not Active | Not Active | Not Active | – | – | – | – | – | – | – | –
